In experiment [1] the test system is Mycobacterium tuberculosis. Kind of experiment: Antituberculosis activity against Mycobacterium tuberculosis H37Rv F420 mutant after 2 weeks. It is filed as functional.
The test system of experiment [2] is Mycobacterium tuberculosis. The experiment is described as follows: Antituberculosis activity against Mycobacterium tuberculosis H37Rv Ddn mutant after 2 weeks. Type of experiment: functional.

Structures are written as SMILES. Values after ≈ are worked out from the molar mass of the structure shown.

The term MIC denotes the lowest concentration found to suppress growth. Low values mean greater potency, high ones weaker potency. Regarding `Nc1c([N+](=O)[O-])nc2n1C[C@H](OCc1ccc(OC(F)(F)F)cc1)CO2`, the MIC in experiment [1] and in experiment [2] was over 100 µM each time.
In the case of `O=[N+]([O-])c1nc2n(c1Br)C[C@H](OCc1ccc(OC(F)(F)F)cc1)CO2`, the MIC in experiment [1] and in experiment [2] was 25 µM (≈ 11 µg/mL) throughout.
For the molecule `N#Cc1c([N+](=O)[O-])nc2n1C[C@H](OCc1ccc(OC(F)(F)F)cc1)CO2`, the MIC in experiment [1] and in experiment [2] was over 100 µM throughout.
Consider `O=[N+]([O-])c1nc2n(c1Cl)C[C@H](OCc1ccc(OC(F)(F)F)cc1)CO2`, for which the MIC in experiment [1] stood at 25 µM (≈ 9.84 µg/mL); in experiment [2] it was 50 µM (≈ 19.7 µg/mL).
The corresponding values for `O=[N+]([O-])c1cn2c(n1)OC[C@@H](OCc1ccc(OC(F)(F)F)cc1)C2` [PRETOMANID] are over 100 µM and over 100 µM.

For the origin of these results see ChEMBL document CHEMBL1641439, “The effect of 5-substitution on the electrochemical behavior and antitubercular activity of PA-824” (2011).
